Source: US20250367114A1, “INHALABLE COMPOSITION FOR ENHANCING ALERTNESS AND VITALITY AND DEVICE FOR SUPPLYING THE INHALABLE COMPOSITION” (KT&G CORPORATION, priority 2024, published 2025)

Test system: C57BL/6 mice
Experiment: general behavioral experiments (LABORAS) after oral administration of caffeine
Format: in vivo
Conditions: for Distance (distance of movement) / Number of times (number of movements) / Speed (speed of movement) / Time (time of movement): measured for an hour
Protocol: The experimental animals were C57BL/6 mice (male, 10 weeks old) purchased from KOATECH after receiving approval from the Institutional Animal Care and Use Committee (IACUC). The experimental animals were acclimatized for a week in the breeding room of the bio-efficacy evaluation center of KT&G (temperature 23±2° C., humidity 50±10%, light-dark cycle 12 hours) and then used in the experiments.
Caffeine was dissolved in a 0.9% saline solution and administered orally to the mice by using Zonde at a dosage of 10 ml/kg, and then general behavioral experiments were conducted. Samples of experimental examples 1 to 3 below were orally administered to the C57BL/6 mice, and then the number of movements, the speed of movement (mm/s), the distance of movement (meter), and the time of movement (sec) for an hour were measured using a LABORAS behavioral device.
Experimental example 1 was a control group, in which only 10 ml/kg of a 0.9% saline solution was orally administered. In experimental example 2, caffeine was dissolved in a 0.9% saline solution at a dose of 5 mg/kg and orally administered by using Zonde. In experimental example 3, caffeine was dissolved in a 0.9% saline solution at a dose of 30 mg/kg and orally administered by using Zonde. With respect to each of experimental examples 1 to 3, the alertness effect of caffeine was verified through general behavioral experiments, and results thereof are shown in Table 1 below.

[1] = caffeine 5 mg/kg oral in 0.9% saline
[2] = caffeine 30 mg/kg oral in 0.9% saline

For `Cn1c(=O)c2c(ncn2C)n(C)c1=O` [Experimental example 2, caffeine], the “alertness effect (in words)” value (caffeine 5 mg/kg oral) was “almost no effect”, the “Distance (distance of movement)” value [1] was 20.48 ± 3.27 meter and the “Number of times (number of movements)” value [1] was 532.5 ± 66.33 count. For the same compound, the “Speed (speed of movement)” value [1] was 5.689 ± 0.91 mm/s, the “Time (time of movement)” value [1] was 405.65 ± 21.89 s and the “alertness effect (in words)” value (caffeine 30 mg/kg oral) was “alertness effect was observed”. The “Distance (distance of movement)” value [2] was 33.59 ± 7.85 meter, the “Number of times (number of movements)” value [2] was 1034.5 ± 220.05 count and the “Speed (speed of movement)” value [2] was 9.33 ± 2.18 mm/s. For the same compound, the “Time (time of movement)” value [2] was 884.15 ± 154.86 s.
